Experimental data reported in patent US7361633B2, “Screening method and anti-tumor drug candidate obtained therefrom” (Ardana Bioscience Limited, priority 2002, dated 2008).
Entries after “also recorded” stand apart in the source; their conditions may differ. Values belong to the substance of their own block, whether it stands above or below them.

Experiments:
[1] = tested on: Type I GnRHR; test: Binding affinity for Type I GnRHR (data not shown)
[2] = biological target: T1, Type II GnRHR (Callithrix jacchus, UniProt Q95MG6); test: Binding affinity for Type II GnRHR (data not shown)
T1 sequence (Q95MG6 1-380): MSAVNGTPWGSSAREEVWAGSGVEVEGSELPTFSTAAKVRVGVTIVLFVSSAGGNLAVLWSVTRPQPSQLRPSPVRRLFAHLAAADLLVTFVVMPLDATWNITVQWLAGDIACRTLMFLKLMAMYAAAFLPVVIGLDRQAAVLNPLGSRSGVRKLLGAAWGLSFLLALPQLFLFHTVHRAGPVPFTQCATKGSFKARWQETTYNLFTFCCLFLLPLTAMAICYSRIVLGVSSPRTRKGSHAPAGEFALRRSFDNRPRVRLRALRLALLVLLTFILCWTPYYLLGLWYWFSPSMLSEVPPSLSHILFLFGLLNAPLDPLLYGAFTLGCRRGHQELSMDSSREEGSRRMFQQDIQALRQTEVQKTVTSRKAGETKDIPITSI

[3] = tested on: Type II GnRHRs cloned from several species; conditions: Ott et al (2002); cited from earlier work
[4] = tested on: caspase 3 and procaspase 3; test: Caspase 3 / procaspase 3 immunoblot of BPH-1 whole cell lysates; type: cell-based, human; conditions: BPH-1 cells, continuous stimulation, time course
Description: (§1) All twelve panels depict either phase contrast (1, 4, 7, 10), confocal laser microscope (2, 5, 8, 11) or phase contrast/confocal merged images (3, 6, 9, 12). Panels 1 to 3 depict untreated control JEG-3 cells for cells in panels 4 to 6 which have been treated with GnRH I (100 nM) for 24 h. All cells have been exposed while live to an annexin V recombinant protein conjugated to the FITC fluorophore. The annexin V will bind specifically only to phosphatidlyserine (PS) lipids usually only expressed on the intracellular side of the plasma membrane lipid bilayer. An early sign of apoptosis is the translocation of these PS lipids from the intracellular side of the membrane to the outer aspect of the bilayer. […] The cellular levels of caspase 3 and procaspase 3 were assessed by specific immunoblotting of JEG-3 or BPH-1 whole cell (w-c) lysates from cells stimulated continuously with GnRH I for the times depicted.
(§2) Thus we have shown that upon continuous GnRH ligand stimulation of either JEG-3 or BPH-1 there is a retardation of cell growth, however we were interested as to whether there was any genuine induction of cellular apoptosis recently reported to occur in several tumour cell lines (Soon et al (2002) J. Clin. Endocrinol. Metab. 87, 4580-4586). […] Initially we measured the effects of GnRH stimulation upon the ultrastructural integrity of the cells plasma membrane. […]

[5] = tested on: caspase 3 and procaspase 3; test: Caspase 3 / procaspase 3 immunoblot of JEG-3 whole cell lysates; type: cell-based, human; conditions: JEG-3 cells, 100 nM continuously, time course
Description: as §1, §2

- binding affinity for Type I GnRHR [1]: high binding affinity
- binding affinity for Type II GnRHR [2]: high binding affinity
Substance: Ac-D-Nal(2)-D-4-ClPhe-D-Pal-Ser-1-MePal-D-IsopropylLys-Leu-IsopropylLys-Pro-D-AlaNH2 [Ant 135-25]

Substance: Ac-D-Nal(2)-D-4-ClPhe-D-Pal-Ser-Ile-D-IsopropylLys-Leu-IsopropylLys-Pro-D -AlaNH2 [Ant 135-18]
- partial agonistic activity upon Type II GnRHRs cloned from several species [3]: high degree of partial agonistic activity

Substance: GnRH I: Gonadotropin-Releasing Hormone, a decapeptide; the original form of GnRH, re-named GnRH I
- cellular levels of pro-caspase 3 and cleaved caspase-3 [4]: enhanced expression of the pro-apoptotic proteases cleaved-caspase 3 and procaspase 3; also recorded: more rapid onset on the generation of cleaved caspase-3
- cellular level of cleaved (active) caspase-3 [5]: enhanced expression of the pro-apoptotic proteases cleaved-caspase 3 and procaspase 3; also recorded: only significantly evident between 48-72 h
- cellular level of pro-caspase 3 [5]: enhanced expression of the pro-apoptotic proteases cleaved-caspase 3 and procaspase 3; also recorded: significant elevation in the cellular levels of pro-caspase 3 evident from 24-48 h
